According to the CheMixHub viscosity set:
± gives the uncertainty stated by the source.

Assay: xn = mol fraction of the nth substance listed

CC1=CCC(=C(C)C)CC1 + Clc1ccccc1
viscosity [mPa·s], 101 kPa
Conditions | x1 = 0.0668 | x1 = 0.1386 | x1 = 0.2162 | x1 = 0.3003 | x1 = 0.3917 | x1 = 0.4913 | x1 = 0.6004 | x1 = 0.7203 | x1 = 0.8528
303.15 K | 0.729 ± 0.015 | 0.761 ± 0.017 | 0.798 ± 0.019 | 0.836 ± 0.022 | 0.874 ± 0.025 | 0.908 ± 0.029 | 0.934 ± 0.034 | 0.955 ± 0.04 | 0.974 ± 0.046
308.15 K | 0.692 ± 0.015 | 0.722 ± 0.016 | 0.756 ± 0.018 | 0.791 ± 0.02 | 0.826 ± 0.024 | 0.858 ± 0.028 | 0.881 ± 0.032 | 0.897 ± 0.037 | 0.913 ± 0.043
313.15 K | 0.649 ± 0.014 | 0.677 ± 0.015 | 0.709 ± 0.017 | 0.743 ± 0.019 | 0.775 ± 0.022 | 0.804 ± 0.026 | 0.825 ± 0.03 | 0.839 ± 0.035 | 0.853 ± 0.041

Clc1cccc2ccccc12 + CCO
viscosity [mPa·s], 101.33 kPa
Conditions | x1 = 0.0773 | x1 = 0.2002 | x1 = 0.3006 | x1 = 0.3989 | x1 = 0.5008 | x1 = 0.5979 | x1 = 0.7026 | x1 = 0.8011 | x1 = 0.9009
298.15 K | 1.238 ± 0.017 | 1.455 ± 0.024 | 1.63 ± 0.033 | 1.779 ± 0.043 | 1.953 ± 0.055 | 2.11 ± 0.069 | 2.298 ± 0.086 | 2.47 ± 0.1 | 2.655 ± 0.12
303.15 K | 1.119 ± 0.015 | 1.314 ± 0.022 | 1.471 ± 0.03 | 1.606 ± 0.039 | 1.757 ± 0.05 | 1.89 ± 0.062 | 2.045 ± 0.076 | 2.214 ± 0.093 | 2.389 ± 0.11
308.15 K | 1.016 ± 0.014 | 1.192 ± 0.02 | 1.334 ± 0.027 | 1.456 ± 0.035 | 1.588 ± 0.045 | 1.714 ± 0.056 | 1.865 ± 0.07 | 2.006 ± 0.084 | 2.158 ± 0.1

CCCCn1cc[n+](C)c1.F[P-](F)(F)(F)(F)F + CO
Conditions | viscosity [mPa·s]
298.15 K, 101 kPa, x1 = 0.7082 | 45.95 ± 3

CCc1ccccc1 + Cc1ccccc1
Conditions | viscosity [mPa·s]
293.15 K, 101.33 kPa, x2 = 0.1809 | 0.652 ± 0.006
293.15 K, 101.33 kPa, x2 = 0.3695 | 0.636 ± 0.006
293.15 K, 101.33 kPa, x2 = 0.5187 | 0.623 ± 0.006
293.15 K, 101.33 kPa, x2 = 0.6606 | 0.611 ± 0.005
293.15 K, 101.33 kPa, x2 = 0.8474 | 0.597 ± 0.005
298 K, 101 kPa, x2 = 0.1175 | 0.6248 ± 0.0052
298 K, 101 kPa, x2 = 0.2654 | 0.6174 ± 0.0051
298 K, 101 kPa, x2 = 0.4661 | 0.6001 ± 0.005
298 K, 101 kPa, x2 = 0.5586 | 0.5944 ± 0.005
298 K, 101 kPa, x2 = 0.6327 | 0.5864 ± 0.0049
298 K, 101 kPa, x2 = 0.8164 | 0.5675 ± 0.0048
298 K, 101 kPa, x2 = 0.9082 | 0.5576 ± 0.0047
298 K, 101 kPa, x2 = 0.9658 | 0.5598 ± 0.0047
298.15 K, 101.3 kPa, x2 = 0.1427 | 0.6196 ± 0.0053
298.15 K, 101.3 kPa, x2 = 0.2444 | 0.609 ± 0.0052
298.15 K, 101.3 kPa, x2 = 0.3777 | 0.5992 ± 0.0051
298.15 K, 101.3 kPa, x2 = 0.4928 | 0.5905 ± 0.0051
298.15 K, 101.3 kPa, x2 = 0.5425 | 0.5867 ± 0.0051
298.15 K, 101.3 kPa, x2 = 0.6355 | 0.5789 ± 0.005
298.15 K, 101.3 kPa, x2 = 0.7353 | 0.5716 ± 0.005
298.15 K, 101.3 kPa, x2 = 0.8573 | 0.5614 ± 0.0049
298.15 K, 101.3 kPa, x2 = 0.9453 | 0.5549 ± 0.0049
298.15 K, 101.33 kPa, x2 = 0.1308 | 0.623 ± 0.005
298.15 K, 101.33 kPa, x2 = 0.2529 | 0.616 ± 0.005
298.15 K, 101.33 kPa, x2 = 0.3685 | 0.604 ± 0.005
298.15 K, 101.33 kPa, x2 = 0.4784 | 0.592 ± 0.005
298.15 K, 101.33 kPa, x2 = 0.6663 | 0.58 ± 0.005
298.15 K, 101.33 kPa, x2 = 0.8024 | 0.568 ± 0.005
298.15 K, 101.33 kPa, x2 = 0.9209 | 0.56 ± 0.005
303.15 K, 101.3 kPa, x2 = 0.0366 | 0.5902 ± 0.0051
303.15 K, 101.3 kPa, x2 = 0.1427 | 0.5808 ± 0.005
303.15 K, 101.3 kPa, x2 = 0.2444 | 0.5729 ± 0.005
303.15 K, 101.3 kPa, x2 = 0.3777 | 0.5639 ± 0.0049
303.15 K, 101.3 kPa, x2 = 0.4928 | 0.5556 ± 0.0049
303.15 K, 101.3 kPa, x2 = 0.5425 | 0.5522 ± 0.0049
303.15 K, 101.3 kPa, x2 = 0.6355 | 0.545 ± 0.0048
303.15 K, 101.3 kPa, x2 = 0.7353 | 0.5371 ± 0.0048
303.15 K, 101.3 kPa, x2 = 0.8573 | 0.528 ± 0.0047
303.15 K, 101.3 kPa, x2 = 0.9453 | 0.5223 ± 0.0047
303.15 K, 101.33 kPa, x2 = 0.1809 | 0.581 ± 0.005
303.15 K, 101.33 kPa, x2 = 0.3695 | 0.565 ± 0.005
303.15 K, 101.33 kPa, x2 = 0.5187 | 0.554 ± 0.005
303.15 K, 101.33 kPa, x2 = 0.6606 | 0.546 ± 0.005
303.15 K, 101.33 kPa, x2 = 0.8474 | 0.533 ± 0.005
313.15 K, 101.33 kPa, x2 = 0.1809 | 0.52 ± 0.005
313.15 K, 101.33 kPa, x2 = 0.3695 | 0.505 ± 0.005
313.15 K, 101.33 kPa, x2 = 0.5187 | 0.496 ± 0.005
313.15 K, 101.33 kPa, x2 = 0.6606 | 0.49 ± 0.005
313.15 K, 101.33 kPa, x2 = 0.8474 | 0.479 ± 0.005
323.15 K, 101.33 kPa, x2 = 0.1809 | 0.46 ± 0.004
323.15 K, 101.33 kPa, x2 = 0.3695 | 0.459 ± 0.004
323.15 K, 101.33 kPa, x2 = 0.5187 | 0.447 ± 0.004
323.15 K, 101.33 kPa, x2 = 0.6606 | 0.443 ± 0.004
323.15 K, 101.33 kPa, x2 = 0.8474 | 0.43 ± 0.004

COCCOCCOCCOCCOC + CCCCCCO
viscosity [mPa·s], 100 kPa
Conditions | x2 = 0.1043 | x2 = 0.2031 | x2 = 0.3014 | x2 = 0.4023 | x2 = 0.5043 | x2 = 0.6003 | x2 = 0.7007 | x2 = 0.8057 | x2 = 0.8986
293.15 K | 3.597 ± 0.029 | 3.447 ± 0.028 | 3.317 ± 0.027 | 3.222 ± 0.026 | 3.167 ± 0.026 | 3.167 ± 0.026 | 3.216 ± 0.026 | 3.482 ± 0.028 | 3.977 ± 0.032
298.15 K | 3.177 ± 0.026 | 3.048 ± 0.025 | 2.933 ± 0.024 | 2.852 ± 0.023 | 2.8 ± 0.023 | 2.797 ± 0.023 | 2.835 ± 0.023 | 3.049 ± 0.025 | 3.453 ± 0.028
303.15 K | 2.83 ± 0.023 | 2.716 ± 0.022 | 2.617 ± 0.022 | 2.543 ± 0.021 | 2.494 ± 0.021 | 2.488 ± 0.021 | 2.52 ± 0.021 | 2.688 ± 0.022 | 3.023 ± 0.025
308.15 K | 2.538 ± 0.021 | 2.438 ± 0.02 | 2.35 ± 0.02 | 2.282 ± 0.019 | 2.237 ± 0.019 | 2.227 ± 0.019 | 2.251 ± 0.019 | 2.387 ± 0.02 | 2.661 ± 0.022
313.15 K | 2.293 ± 0.019 | 2.204 ± 0.018 | 2.124 ± 0.018 | 2.062 ± 0.017 | 2.019 ± 0.017 | 2.007 ± 0.017 | 2.023 ± 0.017 | 2.131 ± 0.018 | 2.356 ± 0.02
318.15 K | 2.093 ± 0.018 | 2.012 ± 0.017 | 1.94 ± 0.016 | 1.88 ± 0.016 | 1.845 ± 0.016 | 1.826 ± 0.016 | 1.838 ± 0.016 | 1.926 ± 0.016 | 2.111 ± 0.018
